Drawing on patent publication US20260028354A1, “TETRAHYDRONAPHTHALENE DERIVATIVES AS ESTROGEN RECEPTOR DEGRADERS” (REGENT OF THE UNIVERSITY OF MICHIGAN, priority 2022, published 2026), this text covers DC50, Dmax and IC50 for 17 compounds.

One experiment addresses ER in T47D cells (Homo sapiens (Human), UniProt P03372). As to the kind of experiment: In-cell Western (ICW) ER degradation assay in T47D cells. As to conditions: for DC50: ER degradation. It is filed as cell-based.
For another experiment, the target named is CRBN/DDB1 (Homo sapiens (Human), UniProt Q96SW2). It is filed as binding. As to conditions: His tagged CRBN+DDB1, Cy5-labeled Thalidomide probe, one hour; read-out: CRBN HTRF IC50. Here is the method:
The binding potency was determined using HTRF assay technology (Perkin Elmer). Compounds were serially diluted in DMSO and […] volume was transferred to white 384-well plate.
On the technique in general: TR-FRET usually uses a lanthanide donor and a delayed reading to cut background.

In another experiment the target is ER in MCF-7 cells (Homo sapiens (Human), UniProt P03372). As to the kind of experiment: In-cell Western (ICW) ER degradation assay in MCF-7 cells. It is filed as cell-based. As to conditions: for DC50: MCF-7, ER degradation, read-out: MCF7 DC50.
Chain of ER in MCF-7 cells (P03372 whole entry): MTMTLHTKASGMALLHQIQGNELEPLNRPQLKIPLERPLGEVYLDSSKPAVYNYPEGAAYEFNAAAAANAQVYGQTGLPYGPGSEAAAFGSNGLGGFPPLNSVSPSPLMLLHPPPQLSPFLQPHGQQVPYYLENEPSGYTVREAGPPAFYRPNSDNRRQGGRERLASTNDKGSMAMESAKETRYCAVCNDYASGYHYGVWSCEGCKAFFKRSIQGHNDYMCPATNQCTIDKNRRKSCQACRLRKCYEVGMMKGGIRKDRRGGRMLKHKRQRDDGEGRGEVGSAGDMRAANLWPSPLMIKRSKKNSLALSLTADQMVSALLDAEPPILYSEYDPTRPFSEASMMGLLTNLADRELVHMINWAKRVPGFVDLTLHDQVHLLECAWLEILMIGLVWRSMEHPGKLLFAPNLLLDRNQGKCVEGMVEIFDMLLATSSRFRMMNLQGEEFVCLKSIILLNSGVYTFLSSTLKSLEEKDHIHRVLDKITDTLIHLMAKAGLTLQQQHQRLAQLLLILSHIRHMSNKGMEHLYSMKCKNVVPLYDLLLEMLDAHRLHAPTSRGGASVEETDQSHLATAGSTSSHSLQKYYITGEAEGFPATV
Setting [1] is: maximal ER degradation, 16 hrs treatment, read-out: T47D Dmax.
[2] abbreviates: MCF7, MCF-7, maximal ER degradation, 16 hrs treatment, read-out: MCF7 Dmax.
Where [3] appears, read: read-out: T47D Dmax, T47D, maximal ER degradation, 16 hrs treatment.
[4] abbreviates: MCF7, read-out: MCF7 Dmax, MCF-7, maximal ER degradation, 16 hrs treatment.

Like-named read-outs stand apart in the source and are kept apart here.

Chain of CRBN/DDB1 (Q96SW2 whole entry, species assumed): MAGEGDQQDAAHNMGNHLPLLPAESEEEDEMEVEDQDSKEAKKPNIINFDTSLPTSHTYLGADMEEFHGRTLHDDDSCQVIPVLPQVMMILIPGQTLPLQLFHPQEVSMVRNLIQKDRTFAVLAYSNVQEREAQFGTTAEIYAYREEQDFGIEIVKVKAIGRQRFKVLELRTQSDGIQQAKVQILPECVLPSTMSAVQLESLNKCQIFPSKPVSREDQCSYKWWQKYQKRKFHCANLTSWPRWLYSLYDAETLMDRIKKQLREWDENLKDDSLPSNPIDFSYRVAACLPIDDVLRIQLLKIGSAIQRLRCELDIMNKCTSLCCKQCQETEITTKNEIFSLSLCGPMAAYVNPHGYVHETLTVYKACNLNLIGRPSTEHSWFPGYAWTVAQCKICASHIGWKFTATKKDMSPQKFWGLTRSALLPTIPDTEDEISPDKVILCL
Chain of CRBN/DDB1 (Q16531 whole entry partner, species assumed): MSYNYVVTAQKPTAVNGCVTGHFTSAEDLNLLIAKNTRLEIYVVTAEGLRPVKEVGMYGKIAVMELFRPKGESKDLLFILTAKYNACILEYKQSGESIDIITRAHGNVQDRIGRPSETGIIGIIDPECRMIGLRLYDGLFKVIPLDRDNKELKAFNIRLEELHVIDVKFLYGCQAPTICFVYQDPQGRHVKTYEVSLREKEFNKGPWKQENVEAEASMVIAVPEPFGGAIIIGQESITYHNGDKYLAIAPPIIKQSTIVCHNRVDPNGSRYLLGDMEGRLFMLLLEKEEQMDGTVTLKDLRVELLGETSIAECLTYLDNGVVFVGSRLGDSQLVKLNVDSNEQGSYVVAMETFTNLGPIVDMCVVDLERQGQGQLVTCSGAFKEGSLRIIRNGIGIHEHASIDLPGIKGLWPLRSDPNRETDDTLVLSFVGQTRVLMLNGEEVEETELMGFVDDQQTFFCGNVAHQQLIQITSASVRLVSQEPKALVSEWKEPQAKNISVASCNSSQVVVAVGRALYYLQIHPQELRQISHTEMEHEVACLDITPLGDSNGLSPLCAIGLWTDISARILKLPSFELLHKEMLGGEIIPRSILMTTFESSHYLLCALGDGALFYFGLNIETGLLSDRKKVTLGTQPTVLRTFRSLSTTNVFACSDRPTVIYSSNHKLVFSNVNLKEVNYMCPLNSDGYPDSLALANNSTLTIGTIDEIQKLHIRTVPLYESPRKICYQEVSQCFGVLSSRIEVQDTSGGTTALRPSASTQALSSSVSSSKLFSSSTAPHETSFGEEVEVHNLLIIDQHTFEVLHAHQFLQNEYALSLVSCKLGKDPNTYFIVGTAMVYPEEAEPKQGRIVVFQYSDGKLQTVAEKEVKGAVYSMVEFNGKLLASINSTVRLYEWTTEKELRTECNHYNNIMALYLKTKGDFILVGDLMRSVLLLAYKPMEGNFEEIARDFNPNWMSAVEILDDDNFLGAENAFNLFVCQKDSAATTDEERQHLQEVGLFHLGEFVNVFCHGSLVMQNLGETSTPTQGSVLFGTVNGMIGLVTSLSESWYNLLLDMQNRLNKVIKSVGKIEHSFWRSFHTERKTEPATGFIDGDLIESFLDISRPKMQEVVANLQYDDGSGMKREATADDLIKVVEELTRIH
Chain of ER in T47D cells (P03372 whole entry): as the sequence (P03372 whole entry) above

The term DC50 denotes the midpoint of the concentration-degradation curve. Broadly, the Dmax is the greatest extent of degradation seen. For orientation: IC50 means the concentration that inhibits the measured activity by half. As to `COc1cc(C(=O)NC2CCC(=O)NC2=O)ncc1N1CCN(CC2CCN(c3ccc([C@@H]4c5ccc(O)cc5CC[C@@H]4c4ccccc4)cc3)CC2)CC1` (stereo partly drawn) [Compound A5, N-(2,6-dioxopiperidin-3-yl)-5-(4-((1-(4-((1R,2S)-6-hydroxy-2-phenyl-1,2,3,4-tetrahydro-naphthalen-1-yl)phenyl)piper-idin-4-yl)methyl)piperazin-1-yl)-4-methoxypicolinamide], the DC50 at ER in T47D cells (16 hrs treatment) and at ER in MCF-7 cells (16 hrs treatment) was under 1 nM in each case. Besides, the maximal degradation (Dmax) at ER in T47D cells (setting [1]) fell in the range of 25 to 50%; on ER in MCF-7 cells (setting [2]), 50 to 75%. In addition, the half-inhibitory concentration (IC50) at CRBN/DDB1 is over 5000 nM.
On to `O=C1CC[C@@H](Nc2ccc([C@@]34CCN(CC5CC6(CCN(c7ccc([C@@H]8c9ccc(O)cc9CC[C@@H]8c8ccccc8)cc7)CC6)C5)C[C@@H]3C4(F)F)cc2)C(=O)N1` [Compound A67, (R)-3-((4-((1R,6R)-7,7-difluoro-3-((7-(4-((1R,2S)-6-hydroxy-2-phenyl-1,2,3,4-tetrahydronaphthalen-1-yl)-phenyl)-7-azaspiro[3.5]nonan-2-yl)methyl)-3-azabicyclo [4.1.0]heptan-6-yl)phenyl)-amino)piperidine-2,6-dione], for which the half-maximal degradation concentration (DC50) at ER in T47D cells (16 hrs treatment) and on ER in MCF-7 cells (16 hrs treatment) was 1 to 10 nM in each case. Besides, the Dmax at ER in T47D cells (setting [3]) and at ER in MCF-7 cells (setting [4]) was 50 to 75% throughout. Besides, at CRBN/DDB1, the concentration for half-maximal inhibition (IC50) was over 5000 nM.
Turning to `COc1cc(N2CCC3(CC2)CC(CN2CCN4c5ccc6c(c5OC[C@H]4C2)CN([C@H]2CCC(=O)NC2=O)C6=O)C3)ccc1[C@@H]1c2ccc(O)cc2CC[C@@H]1c1ccccc1` (single isomer, unassigned) [Compound A10], the DC50 on ER in T47D cells (16 hrs treatment) and at ER in MCF-7 cells (16 hrs treatment) was under 1 nM in each case. Also, the Dmax at ER in T47D cells (setting [1]) and on ER in MCF-7 cells (setting [2]) was over 75% each time. In addition, on CRBN/DDB1, the IC50 is under 50 nM.
With `O=C1CCC(Nc2ccc(C34CCN(C[C@H]5COC6(CCN(c7ccc([C@@H]8c9ccc(O)cc9CC[C@@H]8c8ccccc8)cc7)CC6)C5)CC3C4(F)F)cc2)C(=O)N1` (stereo partly drawn) [Compound A44, (3S)-3-((4-(7,7-difluoro-3-(((S)-8-(4-((1R,2S)-6-hydroxy-2-phenyl-1,2,3,4-tetrahydro-naphthalen-1-yl)phenyl)-1-oxa-8-azaspiro[4.5]decan-3-yl)-methyl)-3-azabicyclo[4.1.0]heptan-6-yl)phenyl)amino)-piperidine-2,6-dione], the DC50 on ER in T47D cells (16 hrs treatment) and at ER in MCF-7 cells (16 hrs treatment) was over 100 nM in each case. For the same compound, the maximal degradation (Dmax) on ER in T47D cells (setting [3]) and on ER in MCF-7 cells (setting [4]) was under 25% in each case. The IC50 at CRBN/DDB1 was over 5000 nM.
On to `O=C1CC[C@H](NC(=O)c2ccc3c(n2)OC[C@H]2CN(C[C@@H]4COC5(CCN(c6ccc([C@H]7c8ccc(O)cc8CC[C@H]7c7ccccc7)cc6)CC5)C4)CCN32)C(=O)N1` (single isomer, unassigned) [Compound A16], for which the figures for the DC50 on ER in T47D cells (16 hrs treatment) and on ER in MCF-7 cells (16 hrs treatment) were under 1 nM and 1 to 10 nM, respectively. The maximal degradation (Dmax) on ER in T47D cells (setting [1]) and at ER in MCF-7 cells (setting [2]) was 50 to 75% in each case. Moreover, at CRBN/DDB1, the IC50 is 500 to 5000 nM.
Turning to `O=C1CC[C@H](N2Cc3c(ccc4c3OCC43CCN(CC4CC5(CCN(c6ccc([C@H]7c8ccc(O)cc8CC[C@H]7c7ccccc7)cc6F)CC5)C4)CC3)C2=O)C(=O)N1` [Compound A148, (S)-3-(1′-((7-(2-fluoro-4-((1S,2R)-6-hydroxy-2-phenyl-1,2,3,4-tetrahydronaphthalen-1-yl)phenyl)-7-azaspiro[3.5]nonan-2-yl)methyl)-6-oxo-6,8-dihydro-2H,7H-spiro[furo[2,3-e]isoindole-3,4′-piperidin]-7-yl)piperidine-2,6-dione], the half-maximal degradation concentration (DC50) at ER in T47D cells (16 hrs treatment) and at ER in MCF-7 cells (16 hrs treatment) was under 1 nM in each case. The results for the Dmax on ER in T47D cells (setting [3]) and at ER in MCF-7 cells (setting [4]) were over 75% and 50 to 75%, respectively. For the same compound, the IC50 on CRBN/DDB1 is under 50 nM.
Turning to `O=C1CC[C@H](NC(=O)c2ccc3c(n2)OC[C@H]2CN(C[C@H]4COC5(CCN(c6ccc([C@H]7c8ccc(O)cc8CC[C@H]7c7ccccc7)cc6)CC5)C4)CCN32)C(=O)N1` (single isomer, unassigned) [Compound A15], the 50% degradation concentration (DC50) at ER in T47D cells (16 hrs treatment) and at ER in MCF-7 cells (16 hrs treatment) was 10 to 100 nM throughout. The Dmax on ER in T47D cells (setting [1]) and on ER in MCF-7 cells (setting [2]) was 25 to 50% in each case. Besides, the IC50 at CRBN/DDB1 is 500 to 5000 nM.
Regarding `O=C1CC[C@H](Nc2ccc(C3CCN(C[C@@H]4COC5(CCN(c6ccc([C@H]7c8ccc(O)cc8CC[C@H]7c7ccccc7)cc6)CC5)C4)CC3)c(F)c2)C(=O)N1` (single isomer, unassigned) [Compound A59], the values for the DC50 at ER in T47D cells (16 hrs treatment) and at ER in MCF-7 cells (16 hrs treatment) were over 100 nM and under 1 nM, respectively. The Dmax on ER in T47D cells (setting [1]) and on ER in MCF-7 cells (setting [2]) was under 25% throughout. For the same compound, the IC50 on CRBN/DDB1 is 50 to 500 nM.
Consider `COc1cc(N2CCC3(CC2)CC(CN2CCC(c4ccc(N[C@H]5CCC(=O)NC5=O)c(F)c4)CC2)C3)ccc1[C@@H]1c2ccc(O)cc2CC[C@@H]1c1ccccc1` (single isomer, unassigned) [Compound A109], for which the DC50 on ER in T47D cells (16 hrs treatment) and at ER in MCF-7 cells (16 hrs treatment) was under 1 nM throughout. Moreover, the greatest degradation seen (Dmax) is 50 to 75% at ER in T47D cells (setting [1]) and 25 to 50% at ER in MCF-7 cells (setting [2]). Further, the IC50 at CRBN/DDB1 was in the range of 500 to 5000 nM.
As for `O=C1CC[C@@H](Nc2ccc(C3CCN(C[C@H]4COC5(CCN(c6ccc([C@@H]7c8ccc(O)cc8CC[C@@H]7c7ccccc7)cc6)CC5)C4)CC3)cc2)C(=O)N1` (single isomer, unassigned) [Compound A51], the half-maximal degradation concentration (DC50) on ER in T47D cells (16 hrs treatment) and on ER in MCF-7 cells (16 hrs treatment) was over 100 nM each time. The greatest degradation seen (Dmax) at ER in T47D cells (setting [1]) and on ER in MCF-7 cells (setting [2]) was under 25% throughout. Further, on CRBN/DDB1, the IC50 was 50 to 500 nM.
For the compound `O=C1CC[C@H](Nc2ccc(C3CCN(C[C@@H]4COC5(CCN(c6ccc([C@@H]7c8ccc(O)cc8CC[C@@H]7c7ccccc7)cc6)CC5)C4)CC3)c(F)c2)C(=O)N1` (single isomer, unassigned) [Compound A61], the DC50 at ER in T47D cells (16 hrs treatment) and on ER in MCF-7 cells (16 hrs treatment) was over 100 nM each time. In addition, the greatest degradation seen (Dmax) on ER in T47D cells (setting [1]) and at ER in MCF-7 cells (setting [2]) was under 25% each time. The 50% inhibitory concentration (IC50) on CRBN/DDB1 lay in the range of 50 to 500 nM.
Turning to `COc1cc(N2CCC(CN3CCN4c5ccc6c(c5OC[C@H]4C3)CN([C@H]3CCC(=O)NC3=O)C6=O)CC2)c(F)cc1[C@H]1c2ccc(O)cc2CC[C@H]1c1ccccc1` [Compound A39, (S)-3-((R)-7-((1-(2-fluoro-4-((1R,2R)-6-hydroxy-2-phenyl-1,2,3,4-tetrahydronaphthalen-1-yl)-5-methoxyphenyl)piper-idin-4-yl)methyl)-1-oxo-1,3,5,5a,6,7,8,9-octahydro-2H-pyrazino[1′,2′:4,5][1,4]oxazino [2,3-e]isoindol-2-yl)piperidine-2,6-dione], the DC50 on ER in T47D cells (16 hrs treatment) lay within 1 to 10 nM; at ER in MCF-7 cells (16 hrs treatment), 10 to 100 nM. The Dmax lay within 50 to 75% on ER in T47D cells (setting [1]) and 25 to 50% on ER in MCF-7 cells (setting [2]). Further, the 50% inhibitory concentration (IC50) at CRBN/DDB1 lay within 50 to 500 nM.
Taken in the same sequence, the figures for `COc1cc(N2CCC3(CC2)CC(CN2CCN4c5ccc(C(=O)N[C@H]6CCC(=O)NC6=O)nc5OC[C@H]4C2)C3)c(F)cc1[C@@H]1c2ccc(O)cc2CC[C@@H]1c1ccccc1` [Compound A111, (R)-N-((S)-2,6-dioxopiperidin-3-yl)-3-((7-(2-fluoro-4-((1S,2S)-6-hydroxy-2-phenyl-1,2,3,4-tetrahydronaphthalen-1-yl)-5-methoxyphenyl)-7-azaspiro[3.5]nonan-2-yl)methyl)-1,2,3,4,4a,5-hexahydropyrazino[1,2-d]pyrido[2,3-b][1,4]oxazine-8-carboxamide] were 1 to 10 nM, 1 to 10 nM, over 75%, 50 to 75% and over 5000 nM.
The matching figures for `O=C1CC[C@H](NC(=O)c2ccc3c(n2)OC[C@H]2CN(C[C@@H]4COC5(CCN(c6ccc([C@@H]7c8ccc(O)cc8CC[C@@H]7c7ccccc7)cc6)CC5)C4)CCN32)C(=O)N1` (single isomer, unassigned) [Compound A14]: under 1 nM, under 1 nM, 50 to 75%, 50 to 75% and 500 to 5000 nM.
The matching figures for `O=C1CC[C@H](N2Cc3c(ccc4c3OC[C@H]3CN(CC5CC6(CCN(c7ccc([C@H]8c9ccc(O)cc9CC[C@H]8c8ccccc8)cn7)CC6)C5)CCN43)C2=O)C(=O)N1` (single isomer, unassigned) [Compound A113]: 10 to 100 nM, 10 to 100 nM, 25 to 50%, 25 to 50% and 50 to 500 nM.
For the compound `COc1cc(N2CCC3(CC2)CC(CN2CCN4c5ccc(C(=O)N[C@H]6CCC(=O)NC6=O)nc5OC[C@@H]4C2)C3)c(F)cc1[C@@H]1c2ccc(O)cc2CC[C@@H]1c1ccccc1` [Compound A104, (S)-N-((S)-2,6-dioxopiperidin-3-yl)-3-((7-(2-fluoro-4-((1S,2S)-6-hydroxy-2-phenyl-1,2,3,4-tetrahydronaphthalen-1-yl)-5-methoxyphenyl)-7-azaspiro[3.5]nonan-2-yl)methyl)-1,2,3,4,4a,5-hexahydropyrazino[1,2-d]pyrido[2,3-b][1,4]oxazine-8-carboxamide], the DC50 at ER in T47D cells (16 hrs treatment) is under 1 nM; on ER in MCF-7 cells (16 hrs treatment), 1 to 10 nM. Also, the Dmax on ER in T47D cells (setting [1]) is over 75%; at ER in MCF-7 cells (setting [2]), 50 to 75%. For the same compound, on CRBN/DDB1, the 50% inhibitory concentration (IC50) was over 5000 nM.
The matching figures for `O=C1CC[C@@H](Nc2ccc(C3CCN(CC4CC5(CCN(c6ccc([C@@H]7c8ccc(O)cc8CC[C@@H]7c7ccccc7)cc6)CC5)C4)CC3)cc2)C(=O)N1` (single isomer, unassigned) [Compound A66]: 1 to 10 nM, 1 to 10 nM, 50 to 75%, 50 to 75% and 50 to 500 nM.
